Our source for the EC50 values is US11040026B2, “Muscarinic M1 receptor positive allosteric modulators” (SUVEN LIFE SCIENCES LIMITED, priority 2016, dated 2021).

Structures can show the parent of a compound that is named as a salt.

This assay concerns the target T1, muscarinic M1 receptor (Homo sapiens, UniProt P11229).
T1 sequence (P11229 1-460): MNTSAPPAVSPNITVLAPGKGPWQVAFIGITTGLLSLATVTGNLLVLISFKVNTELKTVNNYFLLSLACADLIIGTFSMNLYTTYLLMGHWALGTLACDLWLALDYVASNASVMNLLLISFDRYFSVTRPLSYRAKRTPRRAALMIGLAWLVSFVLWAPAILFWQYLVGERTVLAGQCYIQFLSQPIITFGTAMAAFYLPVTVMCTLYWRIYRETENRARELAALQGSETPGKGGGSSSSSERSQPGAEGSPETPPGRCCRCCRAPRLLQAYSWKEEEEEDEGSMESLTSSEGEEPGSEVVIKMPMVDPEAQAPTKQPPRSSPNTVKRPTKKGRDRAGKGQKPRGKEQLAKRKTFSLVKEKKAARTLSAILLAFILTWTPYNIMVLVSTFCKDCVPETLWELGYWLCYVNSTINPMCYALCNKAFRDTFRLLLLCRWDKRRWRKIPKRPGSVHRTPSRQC
Briefly: Allosteric potency EC50 for muscarinic M1 receptor (CHO pCRE-Luc reporter assay). Type of assay: cell-based. To be noted: in presence of EC20 of acetylcholine; CHO cells, luciferase reporter, 4 hours. On the procedure:
Determination of Allosteric Potency EC50 Values for Muscarinic M1 Receptor:
A stable CHO cell line expressing recombinant human Muscarinic M1 receptor and pCRE-Luc reporter system was used for cell-based assay. The assay offers a non-radioactive based approach to determine binding of a compound to GPCRs. In this specific assay, the level of intracellular cyclic AMP which is modulated by activation or inhibition of the receptor is measured. The recombinant cells harbor luciferase reporter gene under the control of cyclic AMP response element.
The above cells were grown in 96 well clear bottom white plates in Hams F12 medium containing 10% fetal bovine serum (FBS). Prior to the addition of compounds or standard agonist, cells were serum starved overnight. Increasing concentrations of test compounds were added along with EC20 of acetylcholine in OptiMEM medium to the cells. The incubation was continued at 37° C. in CO2 incubator for 4 hours. Medium was removed and cells were washed with phosphate buffered saline. The cells were lysed and luciferase activity was measured in a Luminometer. Luminescence units were plotted against the compound concentrations using Graphpad software. EC50 values of the compounds were defined as the concentration required in stimulating the luciferase activity by 50% in presence of EC20 of acetylcholine and the results are provided in table 1.
As to `Cn1ccc2c(Cc3ccc(-c4cscn4)cc3)cc(C(=O)N[C@@H]3CCOC[C@H]3O)nc21` (single isomer, unassigned; isomer-i) [Example 54, trans-N-(3-Hydroxytetrahydropyran-4-yl)-4-[4-(thiazol-4-yl)benzyl]-1-methyl-1H-pyrrolo[2,3-b]pyridine-6-carboxamide (Isomer-I)], the EC50 was 764 nM.
For `Cn1ccc2c(Cc3ccc4ncsc4c3)cc(C(=O)N[C@H]3CCCC[C@@H]3O)nc21` [Example 12, N-[(1S,2S)-2-Hydroxycyclohexyl]-4-(benzothiazol-6-ylmethyl)-1-methyl-1H-pyrrolo[2,3-b]pyridine-6-carboxamide] the value was 306 nM.
For `Cn1cc(-c2ccc(Cc3cc(C(=O)N[C@H]4CCCC[C@@H]4O)nc4c3OCCO4)cc2)cn1` [Example 106, N-[(1S,2S)-2-Hydroxycyclohexyl]-8-[4-(1-methyl-1H-pyrazol-4-yl)-benzyl]-2,3-dihydro-[1,4]dioxino[2,3-b]pyridine-6-carboxamide] the value was 14 nM.
For `COc1ccc(Cc2cc(C(=O)N[C@H]3CCCC[C@@H]3O)nc3c2OCCN3C)cc1` [Example 127, N-[(1S,2S)-2-Hydroxycyclohexyl]-8-(4-methoxybenzyl)-4-methyl-2H-pyrido[3,2-b][1,4]oxazine-6-carboxamide] the value was 946 nM; for `Cn1ccc2nc(C(=O)N[C@H]3CCCC[C@@H]3O)cc(Cc3ccc(F)cc3)c21` [Example 137, N-[(1S,2S)-2-Hydroxycyclohexyl]-7-(4-fluorobenzyl)-1-methyl-1H-pyrrolo[3,2-b]pyridine-5-carboxamide], 641 nM; for `COc1ccc(Cc2cc(C(=O)N[C@H]3CCCC[C@@H]3O)nc3c2CCN3C)cc1` [Example 77, N-[(1S,2S)-2-Hydroxycyclohexyl]-4-(4-methoxybenzyl)-1-methyl-2,3-dihydro-1H-pyrrolo[2,3-b]pyridine-6-carboxamide], 342 nM.
`CN1CCOc2c(Cc3ccc(-c4cnn(C)c4)cc3)cc(C(=O)N[C@H]3CCCC[C@@H]3O)nc21` [Example 122, N-[(1S,2S)-2-Hydroxycyclohexyl]-8-[4-(1-methyl-1H-pyrazol-4-yl)benzyl]-4-methyl-2H-pyrido[3,2-b][1,4]oxazine-6-carboxamide]: the EC50 turned out to be 85 nM.
For `CN1CCOc2c(Cc3ccc(-n4cccn4)cc3)cc(C(=O)N[C@H]3CCCC[C@@H]3O)nc21` [Example 129, N-[(1S,2S)-2-Hydroxycyclohexyl]-8-[4-pyrazol-1-ylbenzyl]-4-methyl-2H-pyrido[3,2-b][1,4]oxazine-6-carboxamide] the value was 15 nM; for `Cn1cc(-c2ccc(Cc3cc(C(=O)N[C@H]4CCCC[C@@H]4O)nc4c3ccn4C)cn2)cn1` [Example 15, N-[(1S,2S)-2-Hydroxycyclohexyl]-4-[2-(1-methyl-1H-pyrazol-4-yl)pyridin-5-ylmethyl]-1-methyl-1H-pyrrolo[2,3-b]pyridine-6-carboxamide], 38 nM; for `CSc1ccc(Cc2cc(C(=O)N[C@H]3CCCC[C@@H]3O)nc3c2ccn3C)cn1` [Example 20, N-[(1S,2S)-2-Hydroxycyclohexyl]-4-(2-methylsulfanylpyridin-5-ylmethyl)-1-methyl-1H-pyrrolo[2,3-b]pyridine-6-carboxamide], 315 nM.
In the case of `Cn1ccc2c(Cc3ccc(F)nc3)cc(C(=O)N[C@H]3CCCC[C@@H]3O)nc21` [Example 3, N-[(1S,2S)-2-Hydroxycyclohexyl]-4-(2-fluoropyridin-5-ylmethyl)-1-methyl-1H-pyrrolo[2,3-b]pyridine-6-carboxamide], the EC50 was determined as 977 nM.
For `Cn1ccc2c(Cc3ccc(-c4ccc(F)nc4)nc3)cc(C(=O)N[C@H]3CCCC[C@@H]3O)nc21` [Example 13, N-[(1S,2S)-2-Hydroxycyclohexyl]-4-(2′-fluoro-[2,5]bipyridinyl-5-ylmethyl)-1-methyl-1H-pyrrolo[2,3-b]pyridine-6-carboxamide] the value was 617 nM.
For `Cn1ccc2c(Cc3ccnc(F)c3)cc(C(=O)N[C@@H]3CCOC[C@H]3O)nc21` (single isomer, unassigned; isomer-ii) [Example 40, trans-N-(3-Hydroxytetrahydropyran-4-yl)-4-(2-fluoropyridin-4-ylmethyl)-1-methyl-1H-pyrrolo[2,3-b]pyridine-6-carboxamide (Isomer-II)] the value was 755 nM; for `Cn1ccc2c(Cc3ccc(Cl)nc3)cc(C(=O)N[C@H]3CCOC[C@H]3O)nc21` (single isomer, unassigned; isomer-i) [Example 49, cis-N-(3-Hydroxytetrahydropyran-4-yl)-4-(2-chloropyridin-5-ylmethyl)-1-methyl-1H-pyrrolo[2,3-b]pyridine-6-carboxamide (Isomer-I)], 1410 nM.
For `Cn1ccc2c(Cc3ccnc(F)c3)cc(C(=O)N[C@@H]3CCOC[C@H]3O)nc21` (single isomer, unassigned; isomer-i) [Example 39, trans-N-(3-Hydroxytetrahydropyran-4-yl)-4-(2-fluoropyridin-4-ylmethyl)-1-methyl-1H-pyrrolo[2,3-b]pyridine-6-carboxamide (Isomer-I)], the EC50 stood at 968 nM.
With `Cc1cc(Cc2cc(C(=O)N[C@H]3CCCC[C@@H]3O)nc3c2ccn3C)ccn1` [Example 17, N-[(1S,2S)-2-Hydroxycyclohexyl]-4-(2-methylpyridin-4-ylmethyl)-1-methyl-1H-pyrrolo[2,3-b]pyridine-6-carboxamide], the EC50 is 1630 nM.
The same measure for `Cn1ccc2c(Cc3ccc(F)cc3)cc(C(=O)N[C@H]3CCOC[C@H]3O)nc21` (single isomer, unassigned; isomer-i) [Example 36, cis-N-(3-Hydroxytetrahydropyran-4-yl)-4-(4-fluorobenzyl)-1-methyl-1H-pyrrolo[2,3-b]pyridine-6-carboxamide (Isomer-I)]: 3170 nM.
In the case of `Cn1ccc2c(Cc3ccc(F)cc3)cc(C(=O)N[C@@H]3CCOC[C@H]3O)nc21` (racemic) [Example 32, Racemic trans-N-(3-Hydroxytetrahydropyran-4-yl)-4-(4-fluorobenzyl)-1-methyl-1H-pyrrolo[2,3-b]pyridine-6-carboxamide], the EC50 is 486 nM.
For the compound `Cn1ccc2c(Cc3ccnc(F)c3)cc(C(=O)NC3CCOCC3O)nc21` (single isomer, unassigned) [Example 38, Racemic trans-N-(3-Hydroxytetrahydropyran-4-yl)-4-(2-fluoropyridin-4-ylmethyl)-1-methyl-1H-pyrrolo[2,3-b]pyridine-6-carboxamide], the concentration giving a half-maximal response (EC50) was determined as 983 nM.
The same measure for `Cn1ccc2c(Cc3ccnc(F)c3)cc(C(=O)N[C@H]3CCOC[C@H]3O)nc21` (single isomer, unassigned; isomer-i) [Example 46, cis-N-(3-Hydroxytetrahydropyran-4-yl)-4-(2-fluoropyridin-4-ylmethyl)-1-methyl-1H-pyrrolo[2,3-b]pyridine-6-carboxamide (Isomer-I)]: 2960 nM.
As for `Cn1cc(-c2ccc(Cc3cc(C(=O)N[C@H]4CCCC[C@@H]4O)nc4c3CCNC4)cc2)cn1` [Example 90, N-[(1S,2S)-2-Hydroxycyclohexyl]-4-[4-(1-methyl-1H-pyrazol-4-yl)-benzyl-5,6,7,8-tetrahydro[1,7]naphthyridine-2-carboxamide Hydrochloride], the EC50 was 18 nM.
The same measure for `O=C(N[C@@H]1CCOC[C@H]1O)c1cc(Cc2ccc(F)cc2)c2c(n1)CNCC2` (single isomer, unassigned; isomer-ii) [Example 98, trans-N-(3-Hydroxytetrahydropyran-4-yl)-4-(4-fluorobenzyl)-5,6,7,8-tetrahydro[1,7]naphthyridine-2-carboxamide Hydrochloride (Isomer-II)]: 109 nM; for `COc1ccc(Cc2cc(C(=O)N[C@H]3CCCC[C@@H]3O)nc3c2ccn3C)cc1` [Example 19, N-[(1S,2S)-2-Hydroxycyclohexyl]-4-(4-methoxybenzyl)-1-methyl-1H-pyrrolo[2,3-b]pyridine-6-carboxamide]: 1110 nM; for `Cn1ccc2c(Cc3cc(F)ncc3F)cc(C(=O)N[C@H]3CCCC[C@@H]3O)nc21` [Example 11, N-[(1S,2S)-2-Hydroxycyclohexyl]-4-(2,5-difluoropyridin-4-ylmethyl)-1-methyl-1H-pyrrolo[2,3-b]pyridine-6-carboxamide]: 1720 nM.
